Data from patent US7279321B2, “Methods for increasing the resistance of a host cell to aromatic carboxylic acids” (priority 2003, dated 2007).
Converted amounts (≈) assume the structure as drawn.

Tests used:
Format in all cases: cell-based
E. coli MG1655 (yhcP+) = assay: microbe, parasite or virus in culture; conditions: for MIC, MG1655 (yhcP+): 16 to 18 hours at 37° C., 0.01% tetrazolium violet; for Rank Diff: score of pigment color for MG1655 at the MIC for DPD2444 (0 = no color, 4 = full purple color); for MIC: Escherichia coli, MG1655, read-out: MIC, MG1655 (yhcP+)
Protocol: (§1) Additional compounds were tested for growth inhibition of E. coli MG1655 (yhcP^+) and DPD2444 (yhcP^−) in Vogel-Bonner medium with glucose as the carbon source and with 0.01% tetrazolium violet added as an indicator of viability. A series of two-fold dilutions of each chemical was made to the wells of a clear 96-well microplate in 50 μl volume. To these wells was added 50 μl of an overnight culture in Vogel Bonner medium with glucose as a carbon source of either MG1655 or DPD2444 that had been previously diluted 500-fold into fresh medium. The plates were incubated at 37° C. without shaking for 16 to 18 hours. The purple color in each well was visually scored. A score of 4+ indicated full purple color equivalent to a no chemical control well. Scores of 3+, 2+, or 1+ indicated decreasing amounts of purple color. A score of − indicated the complete absence of color. The MIC was defined as the lowest tested concentration that gave complete absence of color. The rank of difference between strains was defined as the score of pigment color for E. coli MG1655 in wells containing the concentration of a given chemical at the MIC for DPD24444. When MG1655 had no color, the score was 0. When MG 1655 was scored at 1+, the score was 1, when scored at 2+, the score was 2, etc.

E. coli DPD2444 (yhcP−) = assay: microbe, parasite or virus in culture; conditions: for MIC, DPD2444 (yhcP−): 16 to 18 hours at 37° C., 0.01% tetrazolium violet; for Fold Diff: MIC MG1655 versus MIC DPD2444; for MIC: Escherichia coli, read-out: MIC, DPD2444 (yhcP−); for defined as substrate of the YhcP efflux pump by this genetic test: MIC difference at least 2-fold and rank at least 2
Protocol: as §1

[1] = tested on: yhcP gene (co-transcribed with yhcQ and yhcR); assay: expression of yhcP upon treatment of E. coli cells with aromatic carboxylic acids
[2] = tested on: E. coli strain DPD2444 (yhcP−, strain 16) compared with MG1655 (yhcP+, strain 14); assay: Phenotype MicroArray chemical sensitivity test (Biolog)
Protocol: To further define substrates of this efflux system, other molecules were tested with this genetic test. […] E. coli strains DPD2444 (yhcP^−) and MG1655 (yhcP^+) were tested for inhibition by a large number of chemicals at Biolog Inc. (Hayward, Calif.) using the Phenotype MicroArray™ 1-20. The basis of this technology has been described in a recent publication (Bochner et al., Genome Res., 11:1246-1255 (2001)). The chemical sensitivity test was done with 240 compounds at 4 concentrations each. These chemicals included aromatic and heterocyclic molecules, such as acriflavin, dichloro-8-hydroxyquinoline, 9-aminoacridine, fusaric acid, salicylic acid, phenylethanol, o-cresol, m-cresol, p-cresol, pentachlorophenol, coumarin, DL 3-phenyl lactic acid, and cinnamic acid. Also included were numerous antibiotics and other antimicrobial compounds, including several weak acids and other compounds that would disrupt proton flux. Cinnamic acid was the only compound of the 240 tested for which strain DPD2444 was hypersensitive as compared with MG1655. The report regarding the increased sensitivities of strain DPD2444 (strain 16) compared with MG1655 (strain 14) is quoted below in Table 6.

[3] = tested on: E. coli strain DPD2444 (yhcP::TN<Kan>); assay: MIC, 2-fold dilutions, Vogel-Bonner medium with 0.4% glucose; conditions: Escherichia coli, read-out: MIC for pHCA
Text: (§2) The yhcP::TN<Kan> was introduced into E. coli strain MG1655 (obtained from Prof. Douglas Berg, Washington University School of Medicine, St. Louis, […].) by P1clr100 Cm mediated transduction to kanamycin resistance using phage lysates of E. coli strain DPD2443. One of the resultant kanamycin resistant transductants was named DPD2444.

E. coli strain MG1655 = assay: as above; conditions: Escherichia coli, overnight at 37° C., read-out: MIC for pHCA
Text: as §2

[4] = tested on: E. coli strain DPD4055 (MG1655 with pTrcHis2TOPO®/lacZ); assay: growth and CFU/ml in defined medium containing pHCA
Protocol: (§3) The plasmid pDEW668 (described in Example 2) that carries the E. coli yhcRQP pHCA efflux system was moved by transformation into E. coli strain MG1655 obtained from the American Type Culture Collection, Manassas, Va. (ATCC #700926. lot # 2660700) to form strain DPD4057. For a control, plasmid pTrcHis2TOPO®/lacZ was also put into the same host strain, making strain DPD4055. E. coli strains DPD4055 and DPD4057 were grown overnight at 37° C. in a defined medium made with 4 g/l (NH4)2SO4, 1.26 g/l KH2PO4, 2.42 g/l K2HPO4, 0.5 g/l MgSO4.7H2O, 30 mM MOPSO, pH 7.0, 1 mg/l thiamin, 50 mg/l citric acid, 7.5 mg/l CaCl2.2H2O, 25 mg/l FeSO4.7H2O, 1.95 mg/l ZnSO4.7H2O, 1.9 mg/l CuSO4.5H2O, 1.0 mg/l CoCl2.6H2O, 1.5 mg/l MnCl2.4H2O, 7.5 g/l glucose, and 25 μg/ml ampicillin. The next day, tubes with 1.0 ml of the same medium containing 7.5, 5.0, 3.3, 2.2, 1.5, or 0 g/l pHCA were inoculated with 10 μl of the overnight cultures. These tubes were grown at 37° C. on a roller drum in the dark for 1 to 2 days. At 21 hours after inoculation, the tube with 5.0 g/l pHCA inoculated with DPD4057 had visible growth. In contrast, strain DPD4055 had visible growth at 2.2 g/l pHCA, but not higher.
(§4) At 48 hours of incubation, the CFU/ml of the cultures growing in the presence of 7.5 g/l pHCA was determined by plating dilutions onto LB plates. Strain DPD4055 had 2×10^2 CFU/ml. Strain DPD4057 had 8×10^7 CFU/ml. The inoculum for each culture was 2×10^7 CFU/ml. […] In contrast, the culture carrying multicopy yhcRQP increased in CFU/ml.

[5] = tested on: E. coli strain DPD4057 (MG1655 with pDEW668, multicopy yhcRQP); assay: as above
Protocol: as §3, §4

[6] = tested on: E. coli strain DPD3314 (MG1655 with pDEW668, multicopy yhcRQP); assay: pHCA MIC, 2-fold dilutions, Vogel-Bonner medium with 0.4% glucose
Protocol: (§5) The pHCA MICs for E. coli strains DPD3313 and DPD3314 were determined. […] IPTG was not added to the medium because the trc promoter has substantial activity in its absence.

[7] = tested on: E. coli strain DPD3313 (MG1655 with pTrcHis2TOPO®/lacZ); assay: as above; conditions: Escherichia coli, no IPTG, overnight at 37° C.
Protocol: as §5

Compound	MIC, MG1655 (yhcP+) (E. coli MG1655 (yhcP+))	Rank Diff (E. coli MG1655 (yhcP+))	MIC, DPD2444 (yhcP−) (E. coli DPD2444 (yhcP−))	Fold Diff (E. coli DPD2444 (yhcP−))	MIC (E. coli MG1655 (yhcP+)) [mM]	MIC (E. coli DPD2444 (yhcP−)) [mM]	further results
O=C(O)c1ccc(C(=O)O)c2ccccc12 [1,4-naphthalenedicarboxyylic acid]	10 mM (≈ 2160 µg/mL)	0	10 mM (≈ 2160 µg/mL)	1			
Oc1cccc2c(O)cccc12 [1,5-dihydroxynaphthalene]		1		2	0.5 (≈ 80.1 µg/mL)	0.25 (≈ 40 µg/mL)	
Oc1ccc2c(O)cccc2c1 [1,6-dihydroxynaphthalene]		1		2	0.5 (≈ 80.1 µg/mL)	0.25 (≈ 40 µg/mL)	
O=C(O)c1ccc2ccccc2c1O [1-hydroxy-2-naphthoic acid]		0		1	0.62 (≈ 117 µg/mL)	0.62 (≈ 117 µg/mL)	
O=C(O)c1cccc2ccccc12 [1-naphthoic acid]		0		1	2.5 (≈ 430 µg/mL)	2.5 (≈ 430 µg/mL)	
O=C(O)c1cccc(O)c1O [2,3-dihydroxybenzoic acid]		0		1	10 (≈ 1540 µg/mL)	10 (≈ 1540 µg/mL)	
O=C(O)c1cc2ccccc2cc1C(=O)O [2,3-naphthalenedicarboxylic acid]		0		1	80 (≈ 17300 µg/mL)	80 (≈ 17300 µg/mL)	
COc1cccc(OC)c1O [2,6-dimethoxyphenol]		0		1	5 (≈ 771 µg/mL)	5 (≈ 771 µg/mL)	
Oc1ccc2ccc(O)cc2c1 [2,7-dihydroxynaphthalene]		1		2	0.62 (≈ 99.3 µg/mL)	0.31 (≈ 49.7 µg/mL)	
O=C(O)c1ccccc1-c1ccccc1 [2-biphenylcarboxylic acid]		0		1	2.5 (≈ 496 µg/mL)	2.5 (≈ 496 µg/mL)	
O=C(O)C=Cc1ccccc1O [2-hydroxycinnamate]	20 mM (≈ 3280 µg/mL)	2	10 mM (≈ 1640 µg/mL)	2			defined as substrate of the YhcP efflux pump by this genetic test (E. coli DPD2444 (yhcP−)): substrates of the YhcP efflux pump
O=C(O)c1ccc2ccccc2c1 [2-naphthoic acid]		1		2	20 (≈ 3440 µg/mL)	10 (≈ 1720 µg/mL)	
O=C(O)C=Cc1ccc(O)c(O)c1 [3,4-dihydroxycinnamate]	0.62 mM (≈ 112 µg/mL)	0	0.62 mM (≈ 112 µg/mL)	1			
COc1cc(C=CC(=O)O)cc(OC)c1O [3,5-dimethoxy-4-hydroxycinnamate]	10 mM (≈ 2240 µg/mL)	0	10 mM (≈ 2240 µg/mL)	1			
O=C(O)c1cc2ccccc2cc1O [3-hydroxy-2-naphthoic acid]		0		1	1.2 (≈ 226 µg/mL)	1.2 (≈ 226 µg/mL)	
O=C(O)c1ccc2cc(O)ccc2c1 [6-hydroxy-2-naphthoic acid]		3		8	20 (≈ 3760 µg/mL)	2.5 (≈ 470 µg/mL)	defined as substrate of the YhcP efflux pump by this genetic test (E. coli DPD2444 (yhcP−)): substrates of the YhcP efflux pump
O=C(O)c1ccccc1 [Benzoate]	25 mM (≈ 3050 µg/mL)	0	25 mM (≈ 3050 µg/mL)	1			
O=C(O)C=Cc1ccccc1 [CA, cinnamic acid]		1		2	20 (≈ 2960 µg/mL)	10 (≈ 1480 µg/mL)	expression of the yhcP gene upon treatment of E. coli cells [1]: highly upregulated; difference in growth inhibition of the two strains (in words) (E. coli DPD2444 (yhcP−); MG1655 versus DPD2444): slight difference; sensitivity of strain DPD2444 as compared with MG1655 (in words) ([2]; 240 compounds at 4 concentrations each): hypersensitive; Phenotypes Lost - Slower Growth/Sensitivity: Difference ([2]; PM19, well C 11, Strain 16 (DPD2444) vs Strain 14 (MG1655)): −83
COC(=O)c1ccc(O)cc1 [Methyl paraben]		0		1	3.8 (≈ 578 µg/mL)	3.8 (≈ 578 µg/mL)	
O=C(O)c1ccccc1O [Salicylate]	100 mM (≈ 13800 µg/mL)	0	100 mM (≈ 13800 µg/mL)	1			
C=C1CCOC1=O [Tulipalin]	0.008%	0	0.008%	1			
C[S+](C)[O-] [dimethyl sulfoxide (DMSO), dimethyl sulfoxide]	20%	0	20%	1			
O=C(O)C=Cc1ccc(O)cc1 [pHCA, para-hydroxycinnamic acid]		2		4	40 (≈ 6570 µg/mL)	10 (≈ 1640 µg/mL)	MIC [3]: 12 mM (≈ 1970 µg/mL); MIC (E. coli strain MG1655): 50 mM (≈ 8210 µg/mL); expression of the yhcP gene upon treatment of E. coli cells [1]: highly upregulated; effect of pHCA on the strain without the multicopy yhcRQP genes (in words) ([4]; 7.5 g/l pHCA, 48 hours): bactericidal effect; CFU/ml of culture in the presence of pHCA ([4]; 7.5 g/l pHCA, 48 hours, DPD4055, inoculum 2×10^7 CFU/ml): 2×10^2 CFU/ml; pHCA concentration with visible growth, but not higher ([4]; 21 hours after inoculation, defined medium, 37° C., DPD4055, tested 7.5, 5.0, 3.3, 2.2, 1.5 g/l): 2.2 g/l; CFU/ml of culture in the presence of pHCA ([5]; 7.5 g/l pHCA, 48 hours, DPD4057, inoculum 2×10^7 CFU/ml): 8×10^7 CFU/ml; pHCA concentration with visible growth ([5]; 21 hours after inoculation, defined medium, 37° C., DPD4057, tested 7.5, 5.0, 3.3, 2.2, 1.5 g/l): 5.0 g/l; fold improvement in pHCA tolerance by multicopy expression of yhcRQP ([5]; DPD4057 versus DPD4055, 21 hours): 2.3 fold; defined as substrate of the YhcP efflux pump by this genetic test (E. coli DPD2444 (yhcP−)): substrates of the YhcP efflux pump; increased resistance to pHCA by multicopy expression of the yhcRQP operon ([6]; DPD3314 versus DPD3313): two-fold; MIC ([6]; Escherichia coli, MG1655, read-out: MIC for pHCA): 100 mM (≈ 16400 µg/mL); MIC [7]: 50 mM (≈ 8210 µg/mL)
